Test results: patent publication EP0888346B1, “CORALYNE ANALOGS AS TOPOISOMERASE INHIBITORS” (RUTGERS, THE STATE UNIVERSITY OF NEW JERSEY, priority 1996, dated 1997)
Like-named read-outs stand apart in the source and are kept apart here.

Key:
[1] = system: camptothecin-resistant CPT-K5 cells; test: MTT-microtiter plate tetrazolinium cytotoxicity assay (MTA), camptothecin-resistant cells
Experimental: The IC50 of the drugs tested were determined by the MTT-microtiter plate tetrazolinium cytotoxicity assay (MTA) (Mosmann, T., J. Immunol. Methods 65:55-63 (1983); Denizot et al., J. Immunol. Methods 89:271-277 (1986)). Human lymphoblast RPMI 8402 cells and their camptothecin-resistant CPT-K5 cells (Andoh et al., Proc. Natl. Acad. Sci., USA 84:5565-5569 (1987)) were kindly provided by Dr. Toshiwo Andoh (Aichi Cancer Center Research Institute, Nagoya, Japan). […] Cells (2000 cells/well, seeded in […] growth medium) were grown in suspension at 37°C in 5% CO2 and maintained by regular passage in RPMI medium supplemented with 10% heat inactivated fetal bovine serum, L-glutamine (2 mM), penicillin (100 U/ml), and streptomycin (0.1 mg/ml). The cells were exposed continuously for 4 days to different drug concentrations, and assayed at the end of the fourth day. Each concentration and the no drug control were repeated at least twice in 6 replica wells. The results were plotted and the IC50 then measured. The drug sensitive human epidermoid carcinoma KB 3-1 cell line and its vinblastine-selected multidrug-resistant variant KB-V1 cells (Akiyama et al., Genetics 11:117-126 (1985)) were kindly provided by Dr. Michael Gottesmann (National Cancer Institute). They were grown as monolayer cultures at 37°C in 5% CO2 and maintained by regular passage in Dulbecco's minimal essential medium supplemented with 10% heat inactivated fetal bovine serum. KB-V1 cells were maintained in the presence of […] vinblastine.

human topoisomerase I = target: T1, human topoisomerase I (Homo sapiens, UniProt P11387); test: Topo I cleavage assay (plasmid YEpG DNA); assay type: biochemical; conditions: concentration relative to camptothecin (CPT) = 1 producing the same cleavage on the plasmid DNA
T1 construct: 15 amino acid vector-derived fusion (pET-11a leader); made in house; host or cells: E. coli BL21(DE3)
T1 sequence (P11387 1-765): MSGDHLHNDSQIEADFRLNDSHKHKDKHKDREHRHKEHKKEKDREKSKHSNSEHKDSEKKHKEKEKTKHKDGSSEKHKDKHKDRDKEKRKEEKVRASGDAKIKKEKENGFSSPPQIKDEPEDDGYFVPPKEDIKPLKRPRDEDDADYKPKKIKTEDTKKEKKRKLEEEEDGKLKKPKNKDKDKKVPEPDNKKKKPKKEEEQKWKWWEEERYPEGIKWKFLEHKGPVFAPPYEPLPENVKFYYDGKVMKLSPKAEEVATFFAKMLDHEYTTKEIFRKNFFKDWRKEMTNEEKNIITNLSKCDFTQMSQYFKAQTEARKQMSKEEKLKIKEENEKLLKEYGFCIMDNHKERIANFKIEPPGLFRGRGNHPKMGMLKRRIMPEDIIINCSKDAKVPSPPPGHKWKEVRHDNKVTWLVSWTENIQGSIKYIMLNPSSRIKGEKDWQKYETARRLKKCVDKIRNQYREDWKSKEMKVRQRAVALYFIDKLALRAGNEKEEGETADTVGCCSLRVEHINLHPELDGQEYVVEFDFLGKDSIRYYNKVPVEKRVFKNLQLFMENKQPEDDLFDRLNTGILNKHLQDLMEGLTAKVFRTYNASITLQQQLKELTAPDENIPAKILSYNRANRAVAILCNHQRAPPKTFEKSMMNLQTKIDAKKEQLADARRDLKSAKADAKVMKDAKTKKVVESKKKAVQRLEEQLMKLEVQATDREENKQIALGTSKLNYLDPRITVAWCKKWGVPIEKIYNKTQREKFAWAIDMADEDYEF
Description: To obtain large quantity of human topoisomerase I, the human topoisomerase I cDNA was cloned into the pET-11a vector, in which transcription of the cDNA is under the control of the inducible T7 promoter (Studier et al., Methods in Enzymol., Vol. 185:60-89, San Diego: Academic Press (1990)). Briefly, a 3.4 kb DNA fragment containing the entire coding sequence of human topoisomerase I and approximately 1 kb of untranslated region downstream of the stop codon was isolated from the plasmid YCpGAL1-hTOP1 (Bjornsti et al., Cancer Res. 49:6318-6323 (1989)) by cutting at the BamHI and EcoRI sites. The vector pET-11a was cut with the same restriction enzymes, dephosphorylated and ligated to the insert in the proper reading-frame downstream of the vector cloning site. The ligation mixture was used to transform E. coli, the correct clone pET1B was isolated (see figure 2A for the map) and its identity confirmed by restriction mapping. Since the translational start in pET is positioned at an upstream NdeI site, the expressed topoisomerase I has a 15 amino acid fusion at its N-terminus. pET1B was then transformed into E. coli BL21(DE3), and, upon induction with 0.4 mM IPTG for 1 hour, the bacterial lysate was analyzed by 10 % SDS-PAGE. Expression was confirmed by Western blotting using rabbit antibodies against human topoisomerase I. Isolation of the expressed protein was done by a simple procedure. Briefly, E. coli cells were lysed by repeated sonic bursts. The sonic extract was made in 1 M NaCl and 6% polyethylene glycol (PEG) to remove nucleic acids. The PEG supernatant was chromatographed directly on a hydroxyapatite column. Expressed human DNA topoisomerase I was eluted at the 0.6 M potassium phosphate step. The eluted enzyme was dialyzed against 50% glycerol, 30 mM potassium phosphate (pH 7.0), 1 mM dithiothreitol (DTT) and 0.1 mM EDTA and stored at -20°C.
(§1) Cleavage assays for the recombinant topoisomerases I and calf thymus topoisomerases I and II were done as described (Liu et al., J. Biol. Chem. 258:15365-15370 (1983)). The plasmid YEpG DNA used for the cleavage assays was prepared and labeled at its 3'-end using the published procedures.

[2] = system: calf thymus topoisomerase II; test: Topo II cleavage assay (plasmid YEpG DNA); assay type: biochemical; conditions: concentration relative to VM-26 = 1 producing the same cleavage on the plasmid DNA
Description: The plasmid pET11a and the E. coli strain BL21(DE3) used for enzyme expression were purchased from Novagen. IPTG was purchased from Sigma. The ECL system used for the Western blotting analysis of bacterial lysates was from Amersham (UK). All the restriction enzymes and Vent polymerase were from New England Biolabs. Mammalian topoisomerase II was isolated from calf thymus glands according to the published procedure (Halligan et al., J. Biol. Chem. 260:2475-2482 (1985)). The single copy yeast plasmids YCpGAL1 expressing various topoisomerase I genes in JN2-134 yeast strain were a kind gift of Dr. M-A. Bjornsti (Thomas Jefferson University, Philadelphia, PA). All bacterial and yeast media were from Difco (Detroit, MI), while cell culture media were purchased from Gibco-BRL (Gaithersburg, MD).
as §1

[3] = system: Human lymphoblast RPMI 8402 cells; test: MTT-microtiter plate tetrazolinium cytotoxicity assay (MTA); assay type: cell-based
Description: The results were plotted and the IC50 then measured.

[4] = Homo sapiens, CPT-K5, 96 h, read-out: Cytotoxicity IC50 CPT-K5
[5] = Homo sapiens, RPMI 8402, 96 h, read-out: Cytotoxicity IC50 RPMI

Compound	Topo I-mediated DNA cleavage (REC, Relative Effective Concentration) (human topoisomerase I)	IC50 [1, 4]	Topo II-mediated DNA cleavage (REC, Relative Effective Concentration) [2]	IC50 [3, 5]	IC50 ([3]; Homo sapiens, RPMI 8402, 96 h, 4 days of continuous drug exposure, read-out: Cytotoxicity IC50 RPMI)	IC50 ([1]; cpt-k5 cells, 96 h)	IC50 ([3]; rpmi 8402 cells, 96 h)	cytotoxicity against RPMI 8402 cells (in words) [3]
COc1ccc(Cc2nccc3cc(OC)c(OC)cc23)cc1OC [Compound 9a]	>1000	29 µM	1000		24 µM			
COc1cc2cc3c4ccc5c(c4cc[n+]3c(C)c2cc1OC)OCO5 [Compound 2c, 8-Methyl-3,4-methylenedioxy-10,11-dimethoxydibenzo[a,g]quinolizinium acetosulfate]	10	41 µM	10	2 µM				
8-Methyl-2,3,10,11-Tetramethoxydibenzo[a,g]quinolizinium acetosulfate [Compound 2a]	10		>1000			20 µM	4.9 µM	
6,7-Dihydroxy-1,2-dimethyl-3-(3, 4-dihydroxyphenyl)isoquinolinium methosulfate [Compound 15]	1000		>1000			> 122 µM	7.3 µM	appreciable cytotoxicity
COc1cc2c(cc1OC)-c1cc3cc(OC)c(OC)cc3c(C)[n+]1CC2 [Compound 7a, 5,6-Dihydro-8-methyl-2,3,10,11-tetramethoxydibenzo[a,g]quinolizinium acetosulfate]	5	> 20 µM	>1000	5.9 µM				
8-Methyl-3,4,10,11-tetramethoxydibenzo[a,g]quinolizinium acetosulfate [Compound 2b]	>1000		100			2 µM	0.4 µM	
COc1cc2cc3[n+](c(C)c2cc1OC)CCc1c-3ccc(OC)c1OC [Compound 7b, 5,6-Dihydro-8-methyl-3,4,10,11-tetramethoxydibenzo[a,g]quinolizinium acetosulfate]	1000	14 µM	1000	6.9 µM				

More lines, main results first:

Topo I-mediated DNA cleavage (REC, Relative Effective Concentration) (human topoisomerase I)	Compound	IC50 [1, 4]	Topo II-mediated DNA cleavage (REC, Relative Effective Concentration) [2]	IC50 [3, 5]	IC50 ([3]; Homo sapiens, RPMI 8402, 96 h, 4 days of continuous drug exposure, read-out: Cytotoxicity IC50 RPMI)	IC50 ([1]; cpt-k5 cells, 96 h)	IC50 ([3]; rpmi 8402 cells, 96 h)	cytotoxicity against RPMI 8402 cells (in words) [3]
>1000	COc1cc2cc3c4ccc(OC)c(OC)c4cc[n+]3cc2cc1OC.[Cl-] [Compound 10b, 3,4,10,11-Tetramethoxydibenzo[a,g]quinolizinium chloride]	5.2 µM	100	2.6 µM				
20	COc1cc2c(cc1OC)-c1cc3cc(OC)c(OC)cc3c[n+]1CC2.[Cl-] [Compound 8a, 5,6-Dihydro-2,3,10,11-tetramethoxydibenzo[a,g]quinolizinium chloride]	18 µM	>1000	10 µM				
>1000	COc1ccc(-c2cc3cc(OC)c(OC)cc3c(C)n2)cc1OC [Compound 12a, 6,7-Dimethoxy-1-methyl-3-(3,4-dimethoxyphenyl)isoquinoline]	24 µM		13 µM				
10	COc1cc2cc3c4ccc5c(c4cc[n+]3cc2cc1OC)OCO5.[Cl-] [Compound 10c, 3,4-Methylenedioxy-10,11-dimethoxydibenzo[a,g]quinolizinium chloride]	6.8 µM	2	0.8 µM				
1000	COc1cc2cc3c4cc(OC)c(OC)cc4cc[n+]3cc2cc1OC.[Cl-] [Compound 10a, 2,3,10,11-Tetramethoxydibenzo[a,g]quinolizinium chloride]	> 32 µM	10	13 µM				
>1000	6,7-Dimethoxy-1, 2-dimethyl-3-(3, 4-dimethoxyphenyl)isoquinolinium methosulfate [Compound 14a]		>1000			39 µM	43 µM	
>1000	COc1ccc(Cc2nccc3c(OC)c(OC)ccc23)cc1OC.Cl [Compound 9b, 5,6-Dimethoxy-1-(3,4-dimethoxybenzyl)isoquinoline hydrochloride]	15 µM	1000	15 µM				
1000	COc1cc2cc(-c3ccc4c(c3)OCO4)nc(C)c2cc1OC [Compound 12b, 6,7-Dimethoxy-1-methyl-3-(3,4-methylenedioxyphenyl)isoquinoline]	31 µM	>1000	22 µM				
1000	6,7-Dimethoxy-1,2-dimethyl-3-(3, 4-methylenedioxyphenyl)isoquinolinium methosulfate [Compound 14b]		1000			11 µM	6.7 µM	appreciable cytotoxicity
